Assay results taken from patent US9527832B2, “Substituted condensed pyrimidine compounds” (GRÜNENTHAL GMBH, priority 2013, dated 2016).

Target: T1, human PDE4B1 (Homo sapiens, UniProt Q07343)
T1 construct: host or cells: Sf9 cells
Experiment: cAMP HTRF assay to determine the activity of hPDE4B1
Type: biochemical
Details: for IC50: dose response measurements with eight concentrations, reported as ranges, read-out: IC50
Procedure: cAMP HTRF® Assay to Determine the Activity of hPDE4B1
The inhibiting effect of the compounds on the enzyme activity of human PDE4B1 was measured by the quantification of 5′-adenosine monophosphate (5′-AMP), which is formed from 3′,5′-cyclic adenosine monophosphate (cAMP). Human recombinant enzyme, expressed in Sf9 cells, and the HTRF (homogeneous time-resolved fluorescence) detection method were used in the assay.
The test compound or water (control) was mixed with the human recombinant PDE4B1 enzyme (4.8 U) in a buffer consisting of 44.4 mM tris-HCl, 5.28 mM MgCl2, 2.64 mM DTT and 0.044% Tween 20 (pH 7.8). After adding the cAMP enzyme substrate (final concentration 40 nM), the mixture was incubated for 30 minutes at room temperature. Then a fluorescence acceptor (Dye2 marked with cAMP), a fluorescence donor (anti-cAMP antibody marked with a europium cryptate) and the non-specific phosphodiesterase inhibitor IBMX (3-isobutyl-1-methylxanthine; final concentration 1 mM) were added. After 60 minutes the fluorescence transfer, which correlates with the amount of remaining cAMP, was measured with a microplate reader (Rubystar, BMG) at λex=337 nm, λem=620 nm and λem=665 nm. The enzyme activity was calculated from the quotient formed from the measured signal at 665 nm and that at 620 nm. The result was expressed as the percentage inhibition of enzyme activity of the control (without PDE4 inhibitor). The enzyme was omitted for measurement of the basal control.
IC50 values (IC50=concentration causing a half-maximal inhibition of control specific activity) were derived from dose response measurements with eight different concentrations (n=2; N=1-2).
Literature: N. Saldou et al., Comparison of recombinant human PDE4 isoforms: interaction with substrate and inhibitors, Cell. Signal. Vol. 10, No. 6, 427-440, 1998

[1] = Percentage inhibition of PDE4B at 1 μM test concentration

T1 sequence (Q07343 whole entry): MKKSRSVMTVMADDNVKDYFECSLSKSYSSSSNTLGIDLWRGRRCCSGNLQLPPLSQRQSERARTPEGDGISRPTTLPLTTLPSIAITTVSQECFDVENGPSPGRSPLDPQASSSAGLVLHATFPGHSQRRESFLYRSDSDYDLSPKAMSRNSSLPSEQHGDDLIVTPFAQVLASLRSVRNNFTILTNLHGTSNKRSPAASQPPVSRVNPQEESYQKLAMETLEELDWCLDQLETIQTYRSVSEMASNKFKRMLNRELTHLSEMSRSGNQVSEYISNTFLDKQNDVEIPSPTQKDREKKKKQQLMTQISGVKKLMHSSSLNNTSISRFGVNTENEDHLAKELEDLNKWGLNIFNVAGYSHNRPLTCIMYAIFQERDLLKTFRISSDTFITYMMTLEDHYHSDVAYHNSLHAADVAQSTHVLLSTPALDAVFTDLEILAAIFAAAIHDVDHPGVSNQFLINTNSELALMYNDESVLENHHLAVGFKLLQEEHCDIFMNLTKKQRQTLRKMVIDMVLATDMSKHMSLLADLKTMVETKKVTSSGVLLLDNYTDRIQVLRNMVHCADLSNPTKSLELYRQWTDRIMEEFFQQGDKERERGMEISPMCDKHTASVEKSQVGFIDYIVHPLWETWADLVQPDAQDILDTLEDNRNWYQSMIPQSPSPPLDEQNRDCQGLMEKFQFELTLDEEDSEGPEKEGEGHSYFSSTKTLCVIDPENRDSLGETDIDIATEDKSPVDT

Row | SMILES | inhibition at 1 µM [1] | IC50 | Inhibition at 1 μM test concentration [%] (Percentage inhibition of PDE4B at 1 μM test concentration, 1 µM)
1 | CN(C)C(=O)COc1ccc2c(c1)N(c1nc(-c3ccccc3C#N)nc3c1C[S+]([O-])C3)CC2 (centres unmarked) [2-103, 2-[[1-[2-(2-Cyano-phenyl)-6-oxo-5,7-dihydro-thieno[3,4-d]pyrimidin-4-yl]-2,3-dihydro-1H-indol-6-yl]oxy]-N,N-dimethyl-acetamide] | 91% | 100 to 1000 nM | 
2 | CN(C)C(=O)COc1ccc2c(c1)N(c1nc(-c3ccccc3NS(C)(=O)=O)nc3c1C[S+]([O-])C3)CC2 (centres unmarked) [2-104, 2-[[1-[2-[2-(Methanesulfonamido)-phenyl]-6-oxo-5,7-dihydro-thieno[3,4-d]pyrimidin-4-yl]-2,3-dihydro-1H-indol-6-yl]oxy]-N,N-dimethyl-acetamide] | 85% | 100 to 1000 nM | 
3 | COc1ncccc1-c1nc2c(c(N3CCc4ccc(OCC(=O)N(C)C)cc43)n1)C[S+]([O-])C2 (centres unmarked) [2-105, 2-[[1-[2-(2-Methoxy-pyridin-3-yl)-6-oxo-5,7-dihydro-thieno[3,4-d]pyrimidin-4-yl]-2,3-dihydro-1H-indol-6-yl]oxy]-N,N-dimethyl-acetamide] | 77% | 100 to 1000 nM | 
4 | CN(C)C(=O)COc1ccc2c(c1)N(c1nc(-c3cccc(C(N)=O)c3)nc3c1C[S+]([O-])C3)CC2 (centres unmarked) [2-108, 3-[4-[6-[(Dimethyl-carbamoyl)-methoxy]-2,3-dihydro-1H-indol-1-yl]-6-oxo-5,7-dihydro-thieno[3,4-d]pyrimidin-2-yl]-benzamide] | 62% |  | 
5 | COc1cc(-c2nc3c(c(N4CCc5ccc(OCC(=O)N(C)C)cc54)n2)C[S+]([O-])C3)ccc1Cl (centres unmarked) [2-111, 2-[[1-[2-(4-Chloro-3-methoxy-phenyl)-6-oxo-5,7-dihydro-thieno[3,4-d]pyrimidin-4-yl]-2,3-dihydro-1H-indol-6-yl]oxy]-N,N-dimethyl-acetamide] | 72% | 100 to 1000 nM | 
6 | COc1cc(F)ccc1-c1nc2c(c(N3CCc4ccc(OCC(=O)N(C)C)cc43)n1)C[S+]([O-])C2 (centres unmarked) [2-112, 2-[[1-[2-(4-Fluoro-2-methoxy-phenyl)-6-oxo-5,7-dihydro-thieno[3,4-d]pyrimidin-4-yl]-2,3-dihydro-1H-indol-6-yl]oxy]-N,N-dimethyl-acetamide] | 64% | 100 to 1000 nM | 
7 | CN(C)C(=O)COc1ccc2c(c1)N(c1nc(-c3ccnc(F)c3)nc3c1C[S+]([O-])C3)CC2 (centres unmarked) [2-138, 2-((1-(2-(2-Fluoropyridin-4-yl)-6-oxido-5,7-dihydrothieno[3,4-d]pyrimidin-4-yl)indolin-6-yl)oxy)-N,N-dimethylacetamide] | 102% |  | 101%
8 | CN(C)C(=O)COc1ccc2c(c1)N(c1nc(-c3cncnc3)nc3c1C[S+]([O-])C3)CC2 (centres unmarked) [2-144, N,N-Dimethyl-2-[[1-(6-oxo-2-pyrimidin-5-yl-5,7-dihydro-thieno[3,4-d]pyrimidin-4-yl)-2,3-dihydro-1H-indol-6-yl]oxy]-acetamide] | 92% | 100 to 1000 nM | 
9 | CN(C)C(=O)COc1ccc2c(c1)N(c1nc(-c3cnc4ccccc4c3)nc3c1C[S+]([O-])C3)CC2 (centres unmarked) [2-146, N,N-Dimethyl-2-[[1-(6-oxo-2-quinolin-3-yl-5,7-dihydro-thieno[3,4-d]pyrimidin-4-yl)-2,3-dihydro-1H-indol-6-yl]oxy]-acetamide] | 104% | < 100 nM | 
10 | CN(C)C(=O)COc1ccc2c(c1)N(c1nc(-c3ccc4cc[nH]c4c3)nc3c1C[S+]([O-])C3)CC2 (centres unmarked) [2-147, 2-[[1-[2-(1H-Indol-6-yl)-6-oxo-5,7-dihydro-thieno[3,4-d]pyrimidin-4-yl]-2,3-dihydro-1H-indol-6-yl]oxy]-N,N-dimethyl-acetamide] | 86% | < 100 nM | 
11 | CN(C)C(=O)COc1ccc2c(c1)N(c1nc(-c3ccc4cnccc4c3)nc3c1C[S+]([O-])C3)CC2 (centres unmarked) [2-148, 2-[[1-(2-Isoquinolin-6-yl-6-oxo-5,7-dihydro-thieno[3,4-d]pyrimidin-4-yl)-2,-dihydro-1H-indol-6-yl]oxy]-N,N-dimethyl-acetamide] | 100% | < 100 nM | 
12 | CN(C)C(=O)COc1ccc2c(c1)N(c1nc(-c3ccc4cccnc4c3)nc3c1C[S+]([O-])C3)CC2 (centres unmarked) [2-149, N,N-Dimethyl-2-[[1-(6-oxo-2-quinolin-7-yl-5,7-dihydro-thieno[3,4-d]pyrimidin-4-yl)-2,3-dihydro-1H-indol-6-yl]oxy]-acetamide] | 92% | < 100 nM | 
13 | CN(C)C(=O)COc1ccc2c(c1)N(c1nc(-c3ccc4ccncc4c3)nc3c1C[S+]([O-])C3)CC2 (centres unmarked) [2-150, 2-[[1-(2-Isoquinolin-7-yl-6-oxo-5,7-dihydro-thieno[3,4-d]pyrimidin-4-yl)-2,3-dihydro-1H-indol-6-yl]oxy]-N,N-dimethyl-acetamide] | 126% | < 100 nM | 
14 | CN(C)C(=O)COc1ccc2c(c1)N(c1nc(-c3cccc4[nH]ccc34)nc3c1C[S+]([O-])C3)CC2 (centres unmarked) [2-151, 2-[[1-[2-(1H-Indol-4-yl)-6-oxo-5,7-dihydro-thieno[3,4-d]pyrimidin-4-yl]-2,3-dihydro-1H-indol-6-yl]oxy]-N,N-dimethyl-acetamide] | 108% | < 100 nM | 
15 | CN(C)C(=O)COc1ccc2c(c1)N(c1nc(-c3ccc4[nH]ccc4c3)nc3c1C[S+]([O-])C3)CC2 (centres unmarked) [2-152, 2-[[1-[2-(1H-Indol-5-yl)-6-oxo-5,7-dihydro-thieno[3,4-d]pyrimidin-4-yl]-2,3-dihydro-1H-indol-6-yl]oxy]-N,N-dimethyl-acetamide] | 88% | < 100 nM | 

Continued, values first:

Row | inhibition at 1 µM [1] | IC50 | Inhibition at 1 μM test concentration [%] (Percentage inhibition of PDE4B at 1 μM test concentration, 1 µM) | SMILES
16 | 100% | < 100 nM |  | CN(C)C(=O)COc1ccc2c(c1)N(c1nc(-c3ccccc3F)nc3c1C[S+]([O-])C3)CC2 (centres unmarked) [2-100, 2-[[1-[2-(2-Fluorophenyl)-6-oxo-5,7-dihydro-thieno[3,4-d]pyrimidin-4-yl]-2,3-dihydro-1H-indol-6-yl]oxy]-N,N-dimethyl-acetamide]
17 | 120% | < 100 nM |  | CN(C)C(=O)COc1ccc2c(c1)N(c1nc(-c3cccc(C(F)(F)F)c3)nc3c1C[S+]([O-])C3)CC2 (centres unmarked) [2-101, N,N-Dimethyl-2-[[1-[6-oxo-2-[3-(trifluoromethyl)phenyl]-5,7-dihydro-thieno[3,4-d]pyrimidin-4-yl]-2,3-dihydro-1H-indol-6-yl]oxy]-acetamide]
18 | 110% | < 100 nM |  | CN(C)C(=O)COc1ccc2c(c1)N(c1nc(-c3ccoc3)nc3c1C[S+]([O-])C3)CC2 (centres unmarked) [2-102, 2-[[1-[2-(Furan-3-yl)-6-oxo-5,7-dihydro-thieno[3,4-d]pyrimidin-4-yl]-2,3-dihydro-1H-indol-6-yl]oxy]-N,N-dimethyl-acetamide]
19 | 104% | < 100 nM |  | CN(C)C(=O)COc1ccc2c(c1)N(c1nc(-c3ccc(S(C)(=O)=O)cc3)nc3c1C[S+]([O-])C3)CC2 (centres unmarked) [2-106, N,N-Dimethyl-2-[[1-[2-(4-methylsulfonyl-phenyl)-6-oxo-5,7-dihydro-thieno[3,4-d]pyrimidin-4-yl]-2,3-dihydro-1H-indol-6-yl]oxy]-acetamide]
20 | 113% | < 100 nM |  | CN(C)C(=O)COc1ccc2c(c1)N(c1nc(-c3cccc(S(C)(=O)=O)c3)nc3c1C[S+]([O-])C3)CC2 (centres unmarked) [2-107, N,N-Dimethyl-2-[[1-[2-(3-methylsulfonyl-phenyl)-6-oxo-5,7-dihydro-thieno[3,4-d]pyrimidin-4-yl]-2,3-dihydro-1H-indol-6-yl]oxy]-acetamide]
21 | 98% | < 100 nM |  | CC(=O)Nc1ccc(-c2nc3c(c(N4CCc5ccc(OCC(=O)N(C)C)cc54)n2)C[S+]([O-])C3)cc1 (centres unmarked) [2-109, 2-[[1-[2-(4-Acetylamino-phenyl)-6-oxo-5,7-dihydro-thieno[3,4-d]pyrimidin-4-yl]-2,3-dihydro-1H-indol-6-yl]oxy]-N,N-dimethyl-acetamide]
22 | 119% | < 100 nM |  | CCOc1ccc(-c2nc3c(c(N4CCc5ccc(OCC(=O)N(C)C)cc54)n2)C[S+]([O-])C3)cc1 (centres unmarked) [2-110, 2-[[1-[2-(4-Ethoxyphenyl)-6-oxo-5,7-dihydro-thieno[3,4-d]pyrimidin-4-yl]-2,3-dihydro-1H-indol-6-yl]oxy]-N,N-dimethyl-acetamide]
23 | 99% | < 100 nM |  | CN(C)C(=O)COc1ccc2c(c1)N(c1nc(-c3cc(F)ccc3F)nc3c1C[S+]([O-])C3)CC2 (centres unmarked) [2-113, 2-[[1-[2-(2,5-Difluoro-phenyl)-6-oxo-5,7-dihydro-thieno[3,4-d]pyrimidin-4-yl]-2,3-dihydro-1H-indol-6-yl]oxy]-N,N-dimethyl-acetamide]
24 | 95% | < 100 nM |  | CN(C)C(=O)COc1ccc2c(c1)N(c1nc(-c3ccc4c(c3)OCO4)nc3c1C[S+]([O-])C3)CC2 (centres unmarked) [2-145, 2-[[1-[2-(1,3-Benzodioxo1-5-yl)-6-oxo-5,7-dihydro-thieno[3,4-d]pyrimidin-4-yl]-2,3-dihydro-1H-indol-6-yl]oxy]-N,N-dimethyl-acetamide]
